Laboratory results published in paper PMC10662218 (RSC Advances, 2023).

Molecular target: Human insulin (monomeric insulin) (Homo sapiens, UniProt P01308)
Experiment: intrinsic Tyr fluorescence quenching
Assay type: binding
Conditions: insulin 25 μM, compound 2-24 μM, double-log

Human insulin (monomeric insulin), sequence (P01308 25-54): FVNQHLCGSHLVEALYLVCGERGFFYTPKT
Human insulin (monomeric insulin), sequence (P01308 90-110): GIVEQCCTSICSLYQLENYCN

## COc1cccc(/C=N/C(CO)(CO)CO)c1O [3b, (E)-2-((2-hydroxy-3-methoxybenzylidene)amino)-2-(hydroxymethyl)propane-1,3-diol]
  K b, 10^4 (M^-1) / 293 K: 17.09 × 10^4 M^-1

## COc1cccc(/C=N/C(C)(C)C)c1O [3a, (E)-2-((tert-butylimino)methyl)-6-methoxyphenol]
  K b, 10^4 (M^-1) / 293 K: 2.18 × 10^4 M^-1
